Reference: patent US20100173983A1, “METHOD FOR INDUCING AUTOPHAGY” (priority 2007, published 2010)

Tests used:
Beclin 1 / Bcl-2 = assay: Beclin 1 immunoprecipitation probed with anti-Bcl-2; assay type: cell-based, Human; conditions: mitochondrial preparations of Cpd 1 treated cells
Excerpt: (§1) FIG. 8. Molecular evidence of autophagic cell death in R-182 ovarian cancer cells induced by Cpd 1. […] B, Beclin 1 binds to Bcl-2. Immunoprecipitation study using mitochondrial preparations of cells pre-treated with Cpd 1 as stated in A, and subjected to beclin 1 immunoprecitation. Immunoprecipitated fractions were washed in PBS, subjected to SDS-PAGE, blotted and then probed with a mouse anti-Bcl-2 antibody. Actin and Topo-1 were used as loading control. C, Depolarized cells resulting from over-expression of Bax and Beclin 1 following administration of Cpd 1. Cells were treated with Cpd 1 as described in A, pelleted and washed in HBSS and the cell pellet resuspended in the reaction buffer for JC-1 (Biovision, Inc. MitoCapture™ K250-100). HBSS-washed cells were analysed by flow cytometry (λexcit=488 nm and (λemit=530 nm for green fluorescence (depolarized) or 590 nm for red fluorescence (polarized). 10,000 gated events were measured with a BD FACScalibur. Results were expressed as mean±standard deviation (n=3).
(§2) To measure membrane depolarization cells were treated with Cpd 1 as described above, pelleted and washed in HBSS and the cell pellet resuspended in the reaction buffer for JC-1 (Biovision, Inc. MitoCapture™ K250-100). HBSS-washed cell pellets were resuspended in 1 mL aliquots of the Mitocapture reagent buffer with 1 μL of JC-1 solution in DMSO (Biovision).

LC3-II = assay: Western blot of R-182 cytoplasmic preparations, LC3-II; assay type: cell-based, Human; conditions: R-182 cells, 5 μg/ml over 24 hr
Excerpt: as §1
(§3) After treatment with Cpd 1, protein was extracted from cells and measured as previously described (Kamsteeg et al., 2003). For separation of the cytoplasmic and mitochondrial fractions, cell pellets were processed using the ApoAlert Cell Fractionation kit (Promega) according to the manufacturer's instructions. […]

XIAP = assay: Western blot of R-182 cells, XIAP; assay type: cell-based, Human; conditions: 5 μg/ml over 24 hr
Excerpt: as §1, §3

mTOR = assay: Western blot of R-182 lysates, mTOR; assay type: cell-based, Human
Excerpt: FIG. 10. The expression of upstream regulators of autophagy are also modulated in response to Cpd 1. […] B-actin was included as a loading control. B, Proposed mechanism of Cpd 1 induced autophagic cell death.
After treatment with Cpd 1, protein was extracted from cells and measured as previously described (Kamsteeg et al., 2003). For separation of the cytoplasmic and mitochondrial fractions, cell pellets were processed using the ApoAlert Cell Fractionation kit (Promega) according to the manufacturer's instructions. 20 μg protein was denatured in sample buffer (2.5% sodium dodecyl sulfate [SDS], 10% glycerol, 5% β-mercapto-ethanol, 0.15 M Tris, pH 6.8, and 0.01% bromophenol blue) and subjected to 12% SDS polyacrylamide gel electrophoresis (SDS-PAGE) as previously described (Kamsteeg et al., 2003). The following antibodies and concentrations were used: mouse anti-Bax (BD Biosciences, 1:500), rabbit anti-actin (Sigma, 1:10,000), rabbit anti-cytochrome c (BD Biosciences, 1:1,000), mouse anti-Cox-4 (BD Biosciences, 1:500), rabbit anti-beclin 1 (Santa Cruz Biotechnology, 1:600), mouse anti LC3 (Nanotools, 1:500). […] Proteins were observed using enhanced chemiluminescence (Pierce, Rockford, Ill.).

endonuclease G [1] = assay: Western blot of R-182 nuclear preparations, endonuclease G; assay type: cell-based, Human; conditions: R-182 cells, 5 μg/ml over 24 hr
Excerpt: as §1, §3

caspase 8 = assay: Caspase-Glo 8 assay in R182 cells; assay type: cell-based, Human; conditions: R182 ovarian cancer explants; dose response and duration of exposure (5 μg/ml, 0-25 hr)
Method: FIG. 4. Comparative induction of caspase 8 in R182 ovarian cancer explants by Cpd 1 and dehydroequol using either dose response (A) or duration of exposure (B). Caspase 8 activity was assessed using the Caspase-Glo 8 assay.
(§4) For caspase activity assays, 10 μg of protein in 50 μL total volume was mixed with 50 μL of equilibrated Caspase-Glo 3/7, 8, or 9 reagents (Promega). After incubating at room temperature for 1 hour, luminescence was measured using TD 20/20 Luminometer (Turner Designs, Sunnyvale, Calif.). Blank values were subtracted and fold-increase in activity was calculated based on activity measured from untreated cells. Each sample was measured in triplicate.

R-182 cells = assay: Mitochondrial membrane depolarization, JC-1 flow cytometry; assay type: cell-based, Human; conditions: cells treated 5 μg/ml
Excerpt: as §1, §2

R182 cells = assay: Phase-contrast microscopy, vacuole formation; assay type: cell-based, Human; conditions: 5 μg/ml over 4 hr and 8 hr
Method: FIG. 6. Phase-contrast images of R182 cells treated with vehicle (NT) or 5 μg/ml Cpd 1 over 4 hr and 8 hr (A).
R182 cells treated with Cpd 1 were observed microscopically to determine if morphological and structural alterations to cellular integrity took place. Cells treated with Cpd 1 were hyper-vacuolated (see FIG. 6) and the plasma membrane appeared to bleb or form folds. […] These morphological changes observed in Cpd 1 treated cells are considered the hall mark of autophagy with the increased vacuoles formation thought to result in autophagosomes which eventually fuse with lysosomes to form autolysosomes. These structures contain catabolic hydrolases which are released into the cytoplasm when the lysosomal membrane becomes compromised.

endonuclease G [2] = assay: Immunohistology of xenograft tumour sections, endonuclease G; assay type: in vivo, SCID mice; conditions: 100 mg/kg, compared to control
Method: FIG. 11. Cpd 1 markers of autophagy observed in in vitro studies are also present in vivo. […] T-S6K served as loading control.
In vivo studies using tumour-bearing mice were conducted to further confirm that Cpd 1 induces programmed cell death via an autophagic process. SCID mice bearing chemoresistant epithelial ovarian cancer (EOC) xenografts derived from a primary cell culture of a patient's ascites were administered with increasing doses of Cpd 1 by intraperotineal injection resulting in reductions in both tumor volume and tumor weight (data not shown). Representative tumours excised from these mice and tumour-bearing mice administered vehicle control were then fixed, sectioned and subjected to immunohistopathology analysis using an α-enodonuclease G directed monoclonal antibody. Tumor samples were blocked with either 10% horse or goat serum in PBS for 1 hour at room temperature. Following three washes with PBS, samples were incubated overnight at 4° C. with either the anti-EndoG (LifeSpan Bioscience) antibody or mouse IgG1 isotype as negative controls. After three washes with PBS, specific staining was detected by incubating with a peroxidase-conjugated horse anti-mouse antibody (1:1000 dilution) for 1 hour followed by a five-minute incubation with DAB substrate (Vector Laboratories). […]

caspase 9 = assay: Caspase-Glo 9 assay in R182 cells; assay type: cell-based, Human; conditions: R182 ovarian cancer explants; dose response and duration of exposure (5 μg/ml, 0-25 hr)
Method: FIG. 3. Comparative induction of caspase 9 in R182 ovarian cancer explants by Cpd 1 and dehydroequol using either dose response (A) or duration of exposure (B). Caspase 9 activity was assessed using the Caspase-Glo 9 assay.
as §4

SMILES: COc1ccc([C@H]2c3ccc(O)c(C)c3OC[C@H]2c2ccc(O)cc2)cc1 (stereo in doubt) [Cpd 1, 3-(4-hydroxyphenyl)-4-(4-methoxyphenyl)-8-methylchroman-7-ol]
- Beclin and Bcl-2 co-precipitation (Beclin 1 / Bcl-2): co-precipitate at higher concentrations compared to control
- LC3-II expression (LC3-II): increased over time
- XIAP expression (XIAP): remains unchanged
- mTOR expression (mTOR; R-182 cells, 5 μg/ml): reduced up to 120 minutes post exposure
- phosphorylated mTOR levels in soluble extracts of cells (mTOR; cells treated in vitro, compared to control): decreased
- endonuclease G in nuclear preparations (endonuclease G [1]): upregulated
- caspase 8 activity (caspase 8): did not induce caspase 8 activity
- mitochondrial membrane depolarization (R-182 cells): results in mitochondrial membrane depolarization
- vacuole formation (R182 cells): vacuole formation is clearly evident
- expression of nuclear endonuclease G in tumour sections (endonuclease G [2]): increased
- caspase 9 activity (caspase 9): did not induce caspase 9 activity
